In ChEMBL document CHEMBL1149893, “Recent developments of carbonic anhydrase inhibitors as potential anticancer drugs” (J Med Chem, 2008) one finds Ki data, which are given here for two compounds.

The target in this test is Carbonic anhydrase 9 (Homo sapiens, UniProt Q16790).

On to `COC(=O)[C@H]1O[C@@H](On2cc(CNC(=O)c3ccc(S(N)(=O)=O)cc3)nn2)[C@H](O)[C@@H](O)[C@@H]1O`, for which the Ki (as a rule, the dissociation constant of the complex between target and ligand, obtained from inhibition or displacement) stood at 23 nM.

In turn, `CC(=O)OC[C@H]1O[C@@H](On2cc(CNC(=O)c3ccc(S(N)(=O)=O)cc3)nn2)[C@H](OC(C)=O)[C@@H](OC(C)=O)[C@@H]1OC(C)=O` yielded a Ki of 76 nM.
